Key:
[1] = target: T1, Melatonin receptor type 1A (Homo sapiens, UniProt P48039); assay: Displacement of [125I]iodomelatonin from human cloned MT1 receptor expressed in […] NIH3T3 cells after 90 mins; format: cell-based
[2] = target: T2, Melatonin receptor type 1B (Homo sapiens, UniProt P49286); assay: Displacement of [125I]iodomelatonin from human cloned MT2 receptor expressed in […] NIH3T3 cells after 90 mins; format: cell-based
T2 sequence (P49286 whole entry): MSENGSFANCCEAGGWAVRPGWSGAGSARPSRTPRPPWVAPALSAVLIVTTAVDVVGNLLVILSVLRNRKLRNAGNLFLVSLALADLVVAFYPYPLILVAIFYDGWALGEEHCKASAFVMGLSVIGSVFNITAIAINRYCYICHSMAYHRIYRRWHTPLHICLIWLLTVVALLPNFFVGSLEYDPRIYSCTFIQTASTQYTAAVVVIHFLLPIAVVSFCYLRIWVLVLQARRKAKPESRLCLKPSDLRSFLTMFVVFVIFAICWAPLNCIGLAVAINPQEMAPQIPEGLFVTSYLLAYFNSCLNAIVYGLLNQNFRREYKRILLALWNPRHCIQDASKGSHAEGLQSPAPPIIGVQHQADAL

[3] = target: T1, Melatonin receptor type 1A; assay: Intrinsic activity at human cloned MT1 receptor expressed in […] NIH3T3 cells assessed as increase of [35S]GTPgammaS binding relative to melatonin; format: functional, cell-based
[4] = target: T3, Melatonin receptor type 1B (Homo sapiens) (UniProt P49286); assay: Intrinsic activity at human cloned MT2 receptor expressed in […] NIH3T3 cells assessed as increase of [35S]GTPgammaS binding relative to melatonin; format: functional, cell-based
T3 sequence (whole entry): T2 sequence (P49286 whole entry)

T1 sequence (P48039 whole entry): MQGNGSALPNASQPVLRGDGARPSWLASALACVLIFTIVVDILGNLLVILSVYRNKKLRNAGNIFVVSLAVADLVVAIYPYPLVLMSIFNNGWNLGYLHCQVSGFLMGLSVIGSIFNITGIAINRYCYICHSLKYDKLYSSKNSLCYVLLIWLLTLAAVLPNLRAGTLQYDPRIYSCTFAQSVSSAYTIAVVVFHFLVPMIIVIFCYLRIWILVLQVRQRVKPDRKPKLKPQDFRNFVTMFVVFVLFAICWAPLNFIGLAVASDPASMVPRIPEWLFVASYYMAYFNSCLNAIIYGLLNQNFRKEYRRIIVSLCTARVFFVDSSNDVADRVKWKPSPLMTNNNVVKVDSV

Row | Ki [1] [nM] | Ki [2] [nM] | Ratio [3] | Ratio [4] | SMILES
1 | 4.17 | 3.72 | 1.04 | 1.12 | CCCC(=O)NCC(C)Oc1cccc(OC)c1 (stereo unspecified)
2 | 12000 | 1320 | – | – | COc1cccc(SCC(C)NC(C)=O)c1 (stereo unspecified)
3 | 55 | 39.8 | 0.85 | 0.81 | COc1cccc(SCCNC(C)=O)c1
4 | 31600 | 6760 | 0 | 0.2 | CC(=O)NC(C)CSc1ccccc1 (stereo unspecified)
5 | 355 | 347 | 0.63 | 0.71 | COc1cccc(OCC(C)NC(C)=O)c1 (stereo unspecified)
6 | 3800 | 339 | 0.22 | 0.5 | CC(=O)NCCSc1ccccc1
7 | 7.76 | 20.9 | 0.9 | 0.77 | COc1cccc(O[C@H](C)CNC(=O)C2CC2)c1
8 | 11500 | 12300 | 0.29 | 0.32 | COc1cccc(SC[C@@H](C)NC(C)=O)c1
9 | 0.933 | 12.9 | 0.91 | 1.02 | COc1cccc(OC(C)CNC(=O)C2CC2)c1 (stereo unspecified)
10 | 3720 | 4370 | -0.07 | 0.25 | CC(=O)N[C@@H](C)CSc1ccccc1
11 | 2750 | 661 | – | – | COc1cccc(S[C@H](C)CNC(C)=O)c1
12 | 49 | 110 | 0.79 | 0.93 | COc1cccc(O[C@H](C)CNC(C)=O)c1
13 | 8.51 | 9.77 | 0.77 | 0.63 | COc1cccc(SC(C)CNC(=O)C2CC2)c1 (stereo unspecified)
14 | 12000 | 3800 | 0.04 | 0.15 | CC(=O)NC(C)COc1ccccc1 (stereo unspecified)
15 | 37200 | 6610 | 0.23 | 0.22 | COc1ccccc1OCCNC(C)=O
16 | 40.7 | 67.6 | 0.81 | 0.8 | COc1cccc(OCCNC(C)=O)c1
17 | 1380 | 1150 | 0.48 | 0.69 | CC(=O)NCC(C)Oc1ccccc1 (stereo unspecified)
18 | 120 | 49 | 0.49 | 0.59 | COc1cccc(S[C@H](C)CNC(=O)C2CC2)c1
19 | 70.8 | 26.3 | 0.59 | 0.64 | CCCC(=O)NC[C@@H](C)Sc1cccc(OC)c1
20 | 3.09 | 2.75 | 1.01 | 1.07 | CCCC(=O)NC[C@H](C)Oc1cccc(OC)c1
21 | 10500 | 5130 | 0.19 | 0.45 | COc1ccccc1OC(C)CNC(C)=O (stereo unspecified)

Row | Ki [1] [nM] | Ki [2] [nM] | Ratio [3] | Ratio [4] | SMILES
22 | 1.7 | 4.68 | 1.01 | 1.09 | COc1cccc(O[C@@H](C)CNC(C)=O)c1
23 | 36300 | 4900 | 0.35 | 0.43 | COc1cccc(OC[C@@H](C)NC(C)=O)c1
24 | 11500 | 5500 | 0.31 | 0.5 | CC(=O)NCCOc1ccccc1
25 | 0.724 | 4.37 | 1.01 | 1.26 | COc1cccc(O[C@@H](C)CNC(=O)C2CC2)c1
26 | 347 | 302 | 0.75 | 0.8 | COc1cccc(OC[C@H](C)NC(C)=O)c1
27 | 2820 | 2400 | 0.48 | 0.56 | COc1ccc(SCCNC(C)=O)cc1
28 | 20900 | 4570 | 0.05 | 0.26 | CC(=O)N[C@@H](C)COc1ccccc1
29 | 81.3 | 67.6 | 1.06 | 0.86 | CCCC(=O)NC[C@@H](C)Oc1cccc(OC)c1
30 | 42700 | 12600 | 0.15 | 0.13 | COc1ccc(OC(C)CNC(C)=O)cc1 (stereo unspecified)
31 | 479 | 263 | 0.3 | 0.5 | COc1cccc(SC[C@H](C)NC(C)=O)c1
32 | 5.75 | 7.08 | – | – | COc1cccc(S[C@@H](C)CNC(C)=O)c1
33 | 110 | 263 | – | – | COc1cccc(SC(C)CNC(C)=O)c1 (stereo unspecified)
34 | 3630 | 501 | 0.27 | 0.56 | COc1ccccc1SCCNC(C)=O
35 | 3.63 | 9.55 | 1.01 | 1.01 | COc1cccc(OC(C)CNC(C)=O)c1 (stereo unspecified)
36 | 61700 | 45700 | 0.26 | 0.44 | COc1ccc(OCCNC(C)=O)cc1
37 | 3.89 | 6.03 | 0.99 | 0.96 | CCCC(=O)NC[C@H](C)Sc1cccc(OC)c1
38 | 74100 | 64600 | -0.05 | -0.04 | CC(=O)N[C@H](C)CSc1ccccc1
39 | 5.37 | 6.76 | 0.8 | 0.8 | COc1cccc(S[C@@H](C)CNC(=O)C2CC2)c1
40 | 63100 | 53700 | 0.17 | 0.11 | CC(=O)N[C@H](C)COc1ccccc1
41 | 9.12 | 5.01 | 1.02 | 0.99 | CCCC(=O)NCC(C)Sc1cccc(OC)c1 (stereo unspecified)
